# Key:
# Format in all cases: in vivo, human
# [1] = Plasma pharmacokinetics of telaglenastat
# [2] = tested on: glutamine; experiment: Plasma glutamine concentration; conditions: cycle 1, day 15 relative to predose on cycle 1, day 1; P = 0.0073; n = 6
# [3] = tested on: advanced and/or treatment-refractory solid tumors; experiment: Antitumor activity by RECIST v1.1, all solid tumors
# [4] = All dose expansion (N = 58), number (percent) of efficacy evaluable patients
compound,measurement,setting,value
"O=C(Cc1cccc(OC(F)(F)F)c1)Nc1ccc(CCCCc2nnc(NC(=O)Cc3ccccn3)s2)nn1 [telaglenastat, Telaglenastat]",Cmin,[1]; RCC patient with PR (800 mg BID),"1,490 ng/mL"
same,half-life,"[1]; human, in vivo, 600 mg",3.73 h
same,AUC,"[1]; human, in vivo, 800 mg",19.9 µg·h/mL
same,AUC(0-t),"[1]; human, in vivo, 800 mg, AUC0–8h, steady state C1D15, 800 mg BID-fed (n = 10), mean (CV%)",9.66 µg·h/mL
same,Cmax,"[1]; human, in vivo, 800 mg, C max, steady state C1D15, 800 mg BID-fed (n = 10), mean (CV%)",1.77 µg/mL
same,concentration at 15 day of cycle 1,"[1]; human, in vivo, 800 mg, C min, steady state C1D15, 800 mg BID-fed (n = 10), median (range)",0.443 µg/mL
same,Cmax,"[1]; human, in vivo, 800 mg, Cmax, RCC patient with PR (800 mg BID)",2.96 µg/mL
same,Tmax,"[1]; human, in vivo, 800 mg, t max, steady state C1D15, 800 mg BID-fed (n = 10), (range)",4 h
same,C min,"[1]; steady state C1D15, 1,000 mg BID-fed (n = 4), median (range)",147 (73.2–221) ng/mL
same,increase in plasma glutamine,[2],approximately 150%
same,Best overall response: Partial response,[3]; [4],1 (1.7)
same,Best overall response: Progressive disease,[3]; [4],33 (56.9)
same,Best overall response: Stable disease,[3]; [4],24 (41.4)
same,objective responses,[3]; BID or TID dose escalation cohorts,No objective responses
same,patients with time on study ≥6 months,[3]; SDs across different tumor types,12 patients
same,patients with PR,[3]; dose expansion (in an RCC patient),1/58
same,patients with SD,"[3]; dose expansion, 24/58",41.4%
same,patients with PD,"[3]; dose expansion, 33/58",56.9%

# From paper PMC9401498 (Clinical Cancer Research, 2021)
